Where two headings read alike, the source gives them in different places.
Columns and labels:
MM.1S myeloma cells = conditions: read-out: IC50, nM (Mean ± SEM), 72h, MTT
MDA-MB231 breast cells = conditions: read-out: IC50, nM (Mean ± SEM); MDA-MB231, 72h, MTT
[1] = system: DPC4 (-/-) BxPC3 pancreatic cancer cell line vs DPC4 (+/+) isogenic cell line; conditions: cited from earlier work
[2] = system: human MiaPaCa-2 pancreatic cancer cell line xenograft; conditions: SCID mice bearing MiaPaCa-2 flank tumors; cited from earlier work
MV-4-11 leukemia cells = conditions: read-out: IC50, nM (Mean ± SEM); MV-4-11, 72h, MTT
[3] = SCID mice; for AUC: variance per Yuan in brackets
[4] = system: 8226/S multiple myeloma cells; conditions: 150 nM PC-046, 16h, baseline 3.31 (0.14)
[5] = system: MV-4-11 (Acute Myeloid Leukemia) human tumor xenograft; conditions: 55 mg/kg IP, Dailyx5, off 5d, repeat 2×
[6] = system: 8226/Dox40 myeloma cells (MDR-1 overexpressing); conditions: read-out: IC50, nM (Mean ± SEM); 8226/Dox40, 72h, MTT
[7] = system: human pancreatic cancer cells; conditions: cited from earlier work
[8] = system: HCT-116 DPC4 (−/−) colon cells
[9] = system: PC-3 (Prostate Cancer) human tumor xenograft; conditions: 55 mg/kg IP, Dailyx5, off 5d, repeat 1×
TRK-B = conditions: at pharmacologically-achievable concentrations; cited from earlier work
[10] = system: U266 multiple myeloma cells; conditions: U266, 24h, 25-100 nM
BxPC-3 pancreatic cells = conditions: read-out: IC50, nM (Mean ± SEM); BxPC-3, 72h, MTT
[11] = system: MM.1S multiple myeloma cells; conditions: 24h, 25-100 nM
PC-3 prostate cells = conditions: read-out: IC50, nM (Mean ± SEM); PC-3, 72h, MTT
MCF-7 breast cells = conditions: read-out: IC50, nM (Mean ± SEM); MCF-7, 72h, MTT
PDGF-beta = conditions: at pharmacologically-achievable concentrations; cited from earlier work
PDGF-alpha = conditions: at pharmacologically-achievable concentrations; cited from earlier work
[12] = system: 8226/S multiple myeloma cells; experiment: Apoptosis by AnnexinV/PI flow cytometry, 8226/S; format: cell-based, human; conditions: 200 nM PC-046 24h, without active caspase inhibitor
[13] = system: MiaPaCa-2 pancreatic cells; conditions: read-out: IC50, nM (Mean ± SEM); MiaPaCa-2, 72h, MTT
[14] = not given; remark: listed apart in the source
[15] = system: 8226/S (Multiple Myeloma) human tumor xenograft; experiment: Xenograft efficacy, 8226/S; conditions: 50 mg/kg IP
[16] = system: 8226/IM10 myeloma cells (imexon-resistant); conditions: read-out: IC50, nM (Mean ± SEM); 8226/IM10, 72h, MTT
[17] = system: MM.1S multiple myeloma cells; conditions: 150 nM PC-046, 16h, baseline 3.14 (0.15)
8226/S myeloma cells = conditions: read-out: IC50, nM (Mean ± SEM), 72h, MTT
HCT-116 colon cells = conditions: read-out: IC50, nM (Mean ± SEM); HCT-116 parental, 72h, MTT
[18] = system: H929 multiple myeloma cells; conditions: H929, 24h, 25-100 nM
OCI-AML3 leukemia cells = conditions: read-out: IC50, nM (Mean ± SEM); OCI-AML3, 72h, MTT
[19] = system: OCI-AM-3 (Acute Myeloid Leukemia) human tumor xenograft; conditions: 55 mg/kg IP, Dailyx5, off 5d, repeat 1×

In the case of `COc1ccc(-c2cnc(-c3ccncc3-c3cccc(OC)c3)o2)cc1` [PC-046, 5-(4-methoxyphenyl)pyridine-4-yl], the IC50 (MM.1S myeloma cells) is given as 162 ± 39.6 nM, the IC50 (MDA-MB231 breast cells) is given as 206 ± 49.2 nM and the “selectivity index previously reported” value [1] is given as 1.74 x. The “activity against flank tumor xenografts” value [2] was “active”, the IC50 (MV-4-11 leukemia cells) was 193 ± 10.8 nM and the Cmax ([3]; 100mg/kg IP) was 4010 ng/mL. The “T ½” value ([3]; 100mg/kg IP) was 5.17 h, the Tmax ([3]; 100mg/kg IP) was 0.08 h and the AUC ([3]; 100mg/kg IP) was 5.22(0.68) ^# hr* μg/mL. The Clearance ([3]; 100mg/kg IV) was 332 mL/min/kg, the Cmax ([3]; 100mg/kg IV) was 1660 ng/mL and the “T ½” value ([3]; 100mg/kg IV) was 8.40 h. For the same compound, the Tmax ([3]; 100mg/kg IV) was 0.17 h, the “Vol. Dist.” value ([3]; 100mg/kg IV) was 240.3 L/kg and the AUC ([3]; 100mg/kg IV) was 5.02 (0.29) ^# hr* μg/mL. For the same compound, the “F (bioavailabilty)” value ([3]; 100mg/kg PO vs IV) was 0.71, the Cmax ([3]; 100mg/kg PO) was 1550 ng/mL and the “T ½” value ([3]; 100mg/kg PO) was 3.17 h. For the same compound, the Tmax ([3]; 100mg/kg PO) was 0.08 h, the AUC ([3]; 100mg/kg PO) was 3.55(0.75) ^# hr* μg/mL and the oral bioavailability ([3]; 100 mg/kg oral gavage compared to the IV route) was 71%. The “% positive histone H3 cells, mean (SEM)” value [4] was 34.70 (5.84) %, the “Mean (SD), mm^3, DPC046 (tumor AUC)” value ([5]; control 18702.7 (7654.1)) was 11309.3 (5293.3) mm^3 and the “Tumor AUC % Change” value ([5]; vs control, p 0.0374) was −39.50%. For the same compound, the IC50 [6] was 188 ± 6.1 nM, the cell cycle effect [7] was “accumulate in G2/M phases” and the “increased activity for the DPC4 (-/-) HCT-116 cell line compared to the wild type HCT-116 cells” value ([8]; ratio of IC50 values) was “roughly 2 fold”. The IC50 ([8]; read-out: IC50, nM (Mean ± SEM), HCT-116 DPC4 (−/−), 72h, MTT) was 52 ± 5.3 nM, the “Mean (SD), mm^3, DPC046 (tumor AUC)” value ([9]; control 10438.6 (4303.9)) was 8238.1 (2506.2) mm^3 and the “Tumor AUC % Change” value ([9]; vs control, p NS) was −21.10%. For the same compound, the “kinase inhibition in vitro” value (TRK-B) was “inhibit”, the “cell cycle effect (DNA content)” value [10] was “accumulation of cells in the G2/M-phase” and the IC50 (BxPC-3 pancreatic cells) was 199 ± 48.2 nM. The “cell cycle effect (DNA content)” value [11] was “accumulation of cells in the G2/M-phase”, the IC50 (PC-3 prostate cells) was 105 ± 30.2 nM and the IC50 (MCF-7 breast cells) was 166 ± 26.3 nM. For the same compound, the “kinase inhibition in vitro” value (PDGF-beta) was “inhibit”, the “kinase inhibition in vitro” value (PDGF-alpha) was “inhibit” and the AnnexinV-positive cells [12] was 30.7%. For the same compound, the “mean PC-046 concentrations in the femurs (bone marrow flushings)” value (30 and 60 minutes after 100 mg/kg IP) was “approximately 0.07 μg/mL”, the femur concentrations (30 and 60 minutes after 100 mg/kg IP, converted) was 195 nM and the mean plasma concentration (30 minutes after 100 mg/kg IP) was 1750 ng/mL. For the same compound, the mean plasma concentration (45 minutes after 100 mg/kg IP) was 1930 ng/mL, the mean plasma concentration (60 minutes after 100 mg/kg IP) was 962 ng/mL and the IC50 [13] was 296 ± 72.1 nM. The lethal acute dose ([14]; mouse, in vivo) was 150 mg/kg, the “time to death after administration” value ([14]; mouse, in vivo, 150 mg/kg) was 2 to 5 days and the acutely tolerated dose ([14]; single dose, non-tumor bearing mice) was 100 mg/kg. For the same compound, the “tumor growth inhibition in vivo (in words)” value ([15]; 8226/S myeloma xenograft) was “no growth inhibition was observed”, the “Mean (SD), mm^3, DPC046 (tumor AUC)” value ([15]; 8226/S, Every third day, repeat 10×, control 27292.6 (13688.8)) was 28516.9 (9067.3) mm^3 and the “Tumor AUC % Change” value ([15]; 8226/S, Every third day, repeat 10×, vs control, p NS) was “+4.5%”. For the same compound, the IC50 [16] was 102 ± 27.5 nM, the “% positive histone H3 cells, mean (SEM)” value [17] was 17.3 (1.28) % and the IC50 (8226/S myeloma cells) was 134 ± 13.8 nM. For the same compound, the IC50 (HCT-116 colon cells) was 99.5 ± 15.8 nM, the “cell cycle effect (DNA content)” value [18] was “accumulation of cells in the G2/M-phase” and the IC50 (OCI-AML3 leukemia cells) was 177 ± 31.8 nM. For the same compound, the “Mean (SD), mm^3, DPC046 (tumor AUC)” value ([19]; control 17752.6 (8665.6)) was 12433.4 (4647.1) mm^3 and the “Tumor AUC % Change” value ([19]; vs control, p NS) was −29.90%.
